# Source: ChEMBL document CHEMBL1240418, “Carbonic anhydrase inhibitors. Regioselective synthesis of novel 1-substituted 1,4-dihydro-4-oxo-3-pyridinesulfonamides and their inhibition of the human cytosolic isozymes I and II and transmembrane cancer-associated isozymes IX and XII” (Eur J Med Chem, 2010)
# Target: Carbonic anhydrase 9 (Homo sapiens, UniProt Q16790)
row,Ki [nM],SMILES
1,7.1,Cn1ccc(=O)c(S(N)(=O)=O)c1
2,7.8,NS(=O)(=O)c1cn(Cc2ccccc2)ccc1=O
3,64,NC(=O)Cn1ccc(=O)c(S(N)(=O)=O)c1
4,96,COC(=O)Nc1ccccc1C(=O)n1ccc(=O)c(S(N)(=O)=O)c1
5,11.8,NS(=O)(=O)c1cn(CC(=O)c2ccc(Cl)cc2)ccc1=O
6,9.7,NS(=O)(=O)c1cn(CC(=O)c2ccc(F)cc2)ccc1=O
7,8.6,NS(=O)(=O)c1cn(CC(=O)c2ccc(Cl)c(Cl)c2)ccc1=O
8,11.9,NS(=O)(=O)c1cn(CC(=O)c2cccc([N+](=O)[O-])c2)ccc1=O
9,118,NS(=O)(=O)c1cn(CC(=O)c2ccc3ccccc3c2)ccc1=O
10,5.8,NS(=O)(=O)c1cn(-c2ccc([N+](=O)[O-])cc2[N+](=O)[O-])ccc1=O
11,6.9,NS(=O)(=O)c1cn(-c2ccc([N+](=O)[O-])c3[n-][o+]nc23)ccc1=O
